# pIC50: −log10 of the molar value.
# Tests used:
# [1] = system: Human myeloid monocytic leukemia cell line (MV-4-11); assay: Inhibition of MV-4-11 cell proliferation (CellTiter luminescent viability); assay type: cell-based; conditions: Homo sapiens, MV4-11, Table IG2, FAK inhibitor-based, 96 hours; for inhibition at 0.01 µM: MV-4-11, 10 nM, read-out: Inhibition Rate at 10 nM (%); for inhibition at 0.5 µM: MV-4-11, 500 nM, read-out: Inhibition Rate at 500 nM (%)
# Summary of the method: (§1)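 IC50 is fitted from luminescent viability (CellTiter-Meiluncell) curves. Nine-point, 5-fold dilution series (top stock 2000 μM) are added at 0.5 μL per 100 μL medium to cells plated the day before, with growth at 37 °C and 5% CO2.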
# [2] = system: Human breast cancer cell line (MDA-MB-231); assay: Inhibition of MDA-MB-231 cell proliferation (CellTiter luminescent viability); assay type: cell-based; conditions: Table IG3, FAK inhibitor-based, 96 hours; for inhibition at 0.01 µM: MDA-MB-231, 10 nM, read-out: Inhibition Rate at 10 nM (%); for inhibition at 0.5 µM: MDA-MB-231, 500 nM, read-out: Inhibition Rate at 500 nM (%)
# Description: The tumor cells used herein were cultured in a cell culture medium listed in table 3 at 37 °C in an incubator with 5% CO2. Prior to experimentation, all cell lines used were correctly identified by STR profiling, and tested negative for mycoplasma contamination using a mycoplasma detection kit through routine screenings.
# The IC50 values of the compounds of the present disclosure (including the compounds in Table 1, Table 2, and Examples 1-468) were determined using the CellTiter-Meiluncell Luminescent Cell Viability Assay Kit from Dalian Meilun Biotech Co., Ltd. The detailed procedure is as follows: Tumor cells were seeded in 96-well cell culture plates at the densities specified in Table 4. On the following day, the test compounds of the present disclosure were subjected to serial dilution. The dilution can be performed according to one of the following two methods: • (1) The first dilution method: The test compounds of the present disclosure (including the compounds in Table 1, Table 2, and Examples 1-468) were subjected to 5-fold serial dilutions starting from a highest concentration of 2000 μM, resulting in a total of 9 concentrations from high to low (2000, 400, 80, 16, 3.2, 0.64, 0.128, 0.0256, 0.00512 μM). Subsequently, 0.5 μL of the test compound dilution was transferred into the 96-well plate containing the cells, with each well containing 100 μL of cell culture medium. […] Into the 96-well plate, the diluted test compounds and corresponding detection reagents were added, resulting in final test compound concentrations of 500 nM and 10 nM, respectively. The experimental procedure is described below using the diluted 2 μM test compound as an example.
# 0.5 μL of the aforementioned diluted compound of the present disclosure (including the compounds in Table 1, Table 2, and Examples 1-468) was added to the seeded cells in 100 μL of medium, yielding a final test compound concentration of 10 nM. After the cells were treated with the compounds of the present disclosure for a specified period, the cell viability assay reagent was added to the culture medium according to the kit's instructions to determine cell viability. […] All controls were treated using the same procedure as the compounds of the present disclosure. The growth inhibition curves for the compounds of the present disclosure were plotted using Prism GraphPad software, and the IC50 values were calculated therefrom.
# [3] = system: Human Multiple myeloma cell line (MM.1S); assay: Inhibition of MM.1S cell proliferation (CellTiter luminescent viability); assay type: cell-based; conditions: Homo sapiens, MM1.S, Table IG1, FAK inhibitor-based, 96 hours; for inhibition at 0.01 µM: 10 nM, read-out: Inhibition Rate at 10 nM (%); for inhibition at 0.5 µM: 500 nM, read-out: Inhibition Rate at 500 nM (%)
# Summary of the method: as §1
# WEE1 = biological target: T1, WEE1 (Homo sapiens, UniProt P30291+Q96SW2); assay: Western blot degradation of WEE1; assay type: cell-based; conditions: hPBMC Cell; 24 hours
# T1 construct: expression of target proteins in cells; endogenous in cells
# Description: (§2) Conventional Western blot assay was performed to evaluate the effects of the compounds of the present disclosure on the expression of target proteins in cells.
# (§3) (1) Cell Seeding and Protein Harvesting: The selected cells were processed according to the cell seeding procedure and protein harvesting procedure in Table II-2.
# (§4) (2) To the collected supernatant, 5×SDS sample loading buffer was added, followed by denaturation at 95 °C for 5 minutes. The denatured samples were then separated by SDS-PAGE electrophoresis on a polyacrylamide gel. Proteins were transferred to a nitrocellulose membrane (0.45 μm NC membrane), blocked with blocking buffer at room temperature for 1 hour, and subjected to antibody incubation and development procedures according to the antibody manufacturer's instructions (Cell Signaling Technology).
# (§5) Half-Maximal Degradation Concentration value (the drug concentration required for degrading proteins by 50%, abbreviated as DC50) reads method: comparing the grayscale values of Western blot bands from drug-treated samples with those from blank DMSO-treated controls, and identifying the drug concentration range at which the grayscale value is half that of the DMSO-treated control bands.
# (§6) DC50 values can be calculated using ImageJ software to measure grayscale values of Western blot bands from drug-treated samples. The concentration-response curve is fitted to estimate the drug concentration corresponding to half the grayscale value.
# (§7) Target protein remaining (%) refers to the percentage of target protein remaining in cells after treatment with protein degrader compounds.
# (§8) Calculation method for target protein remaining (%): Use ImageJ software to measure grayscale values of Western blot bands from drug (protein degrader)-treated samples. The grayscale value of drug-treated bands is divided by that of internal control protein bands, and the resulting quotient is normalized to obtain the relative percentage of remaining target protein after protein degrader treatment.
# (§9) Target protein degradation rate (%)=1−target protein remaining (%).
# IKZF1 = biological target: T2, IKZF1 (Homo sapiens, UniProt Q13422+Q96SW2); assay: Western blot degradation of IKZF1; assay type: cell-based; conditions: hPBMC Cell; 24 hours
# T2 construct: expression of target proteins in cells; endogenous in cells
# Description: as §2, §3, §4, §5, §6, §7, §8, §9
# IKZF2 = biological target: T3, IKZF2 (Homo sapiens, UniProt Q96SW2+Q9UKS7); assay: Western blot degradation of IKZF2; assay type: cell-based; conditions: hPBMC Cell; 24 hours
# T3 construct: expression of target proteins in cells; endogenous in cells
# Description: as §2, §3, §4, §5, §6, §7, §8, §9
# IKZF3 = biological target: T4, IKZF3 (Homo sapiens, UniProt Q96SW2+Q9UKT9); assay: Western blot degradation of IKZF3; assay type: cell-based; conditions: hPBMC Cell; 24 hours
# T4 construct: expression of target proteins in cells; endogenous in cells
# Description: as §2, §3, §4, §5, §6, §7, §8, §9
# CK1α = biological target: T5, CK1α (Homo sapiens, UniProt P48729+Q96SW2); assay: Western blot degradation of CK1α; assay type: cell-based; conditions: hPBMC Cell; 24 hours
# T5 construct: expression of target proteins in cells; endogenous in cells
# Description: as §2, §3, §4, §5, §6, §7, §8, §9
# GSPT1 = biological target: T6, GSPT1 (Homo sapiens, UniProt P15170+Q96SW2); assay: Western blot degradation of GSPT1; assay type: cell-based; conditions: hPBMC Cell; 24 hours
# T6 construct: expression of target proteins in cells; endogenous in cells
# Description: as §2, §3, §4, §5, §6, §7, §8, §9
# [4] = biological target: T7, human Cereblon WT GST-tagged protein (CRBN) (Homo sapiens, UniProt Q96SW2); assay: CRBN binding by HTRF (Cereblon binding kit)
# T7 construct: purchased CISBIO 64BDCRBNPEH
# Summary of the method: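 GST-tagged human Cereblon WT was incubated 3 h at room temperature with compound, thalidomide-Re tracer and Eu anti-GST antibody. Final compound concentrations were 10 to 0.00064 µM (7 points) or 2 and 0.5 µM. Inhibition rate was calculated from HTRF 665/620 nm ratios versus solvent and blank controls.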
# T6 sequence (P15170 whole entry): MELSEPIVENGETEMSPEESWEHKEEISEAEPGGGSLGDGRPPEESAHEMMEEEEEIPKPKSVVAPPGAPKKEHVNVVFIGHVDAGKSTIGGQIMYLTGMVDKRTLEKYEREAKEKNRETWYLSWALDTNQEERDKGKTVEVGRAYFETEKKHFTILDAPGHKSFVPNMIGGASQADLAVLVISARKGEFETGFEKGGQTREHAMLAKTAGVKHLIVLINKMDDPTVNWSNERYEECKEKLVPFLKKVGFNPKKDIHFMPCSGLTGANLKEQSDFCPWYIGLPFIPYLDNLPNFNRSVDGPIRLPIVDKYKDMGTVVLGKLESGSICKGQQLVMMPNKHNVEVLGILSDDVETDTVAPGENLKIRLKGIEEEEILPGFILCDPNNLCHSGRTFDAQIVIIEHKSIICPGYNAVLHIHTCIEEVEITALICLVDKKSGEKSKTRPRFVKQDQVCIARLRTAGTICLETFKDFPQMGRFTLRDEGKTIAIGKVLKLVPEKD
# T6 sequence (Q96SW2 whole entry): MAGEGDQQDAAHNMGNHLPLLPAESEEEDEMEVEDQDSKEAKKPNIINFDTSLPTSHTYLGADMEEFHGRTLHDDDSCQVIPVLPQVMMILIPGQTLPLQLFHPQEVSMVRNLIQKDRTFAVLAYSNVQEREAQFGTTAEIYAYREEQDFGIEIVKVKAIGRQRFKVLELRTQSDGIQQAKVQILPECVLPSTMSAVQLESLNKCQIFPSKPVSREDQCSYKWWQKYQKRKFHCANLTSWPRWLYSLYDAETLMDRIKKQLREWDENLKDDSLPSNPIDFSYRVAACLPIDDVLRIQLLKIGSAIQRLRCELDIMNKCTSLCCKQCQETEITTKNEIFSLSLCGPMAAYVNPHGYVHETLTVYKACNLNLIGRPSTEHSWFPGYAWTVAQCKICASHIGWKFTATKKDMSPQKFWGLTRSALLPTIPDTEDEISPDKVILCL
# T6 sequence (Q16531 whole entry partner): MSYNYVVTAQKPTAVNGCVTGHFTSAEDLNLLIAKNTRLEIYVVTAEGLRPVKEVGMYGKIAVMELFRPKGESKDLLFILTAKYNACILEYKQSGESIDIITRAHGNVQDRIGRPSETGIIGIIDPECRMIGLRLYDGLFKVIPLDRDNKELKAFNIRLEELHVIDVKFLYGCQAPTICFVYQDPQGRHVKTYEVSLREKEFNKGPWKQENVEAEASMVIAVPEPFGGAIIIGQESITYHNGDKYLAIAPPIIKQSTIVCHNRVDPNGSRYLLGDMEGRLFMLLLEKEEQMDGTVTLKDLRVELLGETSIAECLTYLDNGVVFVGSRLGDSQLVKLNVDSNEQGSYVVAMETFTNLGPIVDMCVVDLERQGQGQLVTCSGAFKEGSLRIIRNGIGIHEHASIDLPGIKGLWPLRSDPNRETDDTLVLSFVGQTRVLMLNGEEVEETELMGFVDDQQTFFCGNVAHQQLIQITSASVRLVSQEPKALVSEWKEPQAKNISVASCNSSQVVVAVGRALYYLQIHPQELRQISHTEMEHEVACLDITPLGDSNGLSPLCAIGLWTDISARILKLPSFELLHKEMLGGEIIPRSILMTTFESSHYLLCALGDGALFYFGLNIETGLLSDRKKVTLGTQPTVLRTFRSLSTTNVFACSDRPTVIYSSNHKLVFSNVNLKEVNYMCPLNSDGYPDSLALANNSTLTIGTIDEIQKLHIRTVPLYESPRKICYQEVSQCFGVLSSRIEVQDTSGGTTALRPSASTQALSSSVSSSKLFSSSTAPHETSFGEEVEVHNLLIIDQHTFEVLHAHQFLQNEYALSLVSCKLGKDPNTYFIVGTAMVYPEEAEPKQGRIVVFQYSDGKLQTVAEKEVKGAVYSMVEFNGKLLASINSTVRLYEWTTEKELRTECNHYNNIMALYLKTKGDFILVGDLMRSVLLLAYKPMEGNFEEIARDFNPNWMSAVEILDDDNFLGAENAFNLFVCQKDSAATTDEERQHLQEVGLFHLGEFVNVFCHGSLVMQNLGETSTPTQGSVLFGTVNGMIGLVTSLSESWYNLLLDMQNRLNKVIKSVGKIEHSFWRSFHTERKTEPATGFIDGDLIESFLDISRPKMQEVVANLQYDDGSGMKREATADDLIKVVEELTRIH
# T2 sequence (Q13422 whole entry): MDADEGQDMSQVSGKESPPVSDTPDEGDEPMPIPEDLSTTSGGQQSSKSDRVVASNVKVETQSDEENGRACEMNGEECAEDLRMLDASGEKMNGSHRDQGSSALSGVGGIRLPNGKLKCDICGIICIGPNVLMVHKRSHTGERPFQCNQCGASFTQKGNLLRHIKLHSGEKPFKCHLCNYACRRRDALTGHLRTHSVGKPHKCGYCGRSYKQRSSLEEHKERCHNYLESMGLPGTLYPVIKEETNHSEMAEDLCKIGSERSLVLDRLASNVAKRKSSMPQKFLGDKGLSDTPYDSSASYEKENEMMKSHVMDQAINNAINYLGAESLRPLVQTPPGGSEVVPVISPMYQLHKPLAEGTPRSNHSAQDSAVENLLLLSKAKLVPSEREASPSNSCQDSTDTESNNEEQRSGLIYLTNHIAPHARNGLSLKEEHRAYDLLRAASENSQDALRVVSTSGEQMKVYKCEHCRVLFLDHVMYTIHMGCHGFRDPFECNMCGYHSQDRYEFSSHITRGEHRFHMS
# T2 sequence (Q96SW2 whole entry): as the sequence (Q96SW2 whole entry) above
# T2 sequence (Q16531 whole entry partner): as the sequence (Q16531 whole entry partner) above
# T4 sequence (Q9UKT9 whole entry): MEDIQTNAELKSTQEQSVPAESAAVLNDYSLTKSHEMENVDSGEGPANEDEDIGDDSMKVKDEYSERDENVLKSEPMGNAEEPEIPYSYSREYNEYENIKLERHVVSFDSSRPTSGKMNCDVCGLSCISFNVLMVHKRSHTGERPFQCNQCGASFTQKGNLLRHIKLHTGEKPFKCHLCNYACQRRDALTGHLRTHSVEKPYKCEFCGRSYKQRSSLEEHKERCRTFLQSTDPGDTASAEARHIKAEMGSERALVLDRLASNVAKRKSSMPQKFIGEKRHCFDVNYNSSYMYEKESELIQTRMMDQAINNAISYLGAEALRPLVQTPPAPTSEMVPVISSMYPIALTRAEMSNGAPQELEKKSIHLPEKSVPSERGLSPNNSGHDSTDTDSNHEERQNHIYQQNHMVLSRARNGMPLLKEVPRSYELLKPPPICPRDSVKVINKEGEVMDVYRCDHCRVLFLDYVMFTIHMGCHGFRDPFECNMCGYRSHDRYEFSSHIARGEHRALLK
# T4 sequence (Q96SW2 whole entry): as the sequence (Q96SW2 whole entry) above
# T4 sequence (Q16531 whole entry partner): as the sequence (Q16531 whole entry partner) above
# T1 sequence (P30291 whole entry): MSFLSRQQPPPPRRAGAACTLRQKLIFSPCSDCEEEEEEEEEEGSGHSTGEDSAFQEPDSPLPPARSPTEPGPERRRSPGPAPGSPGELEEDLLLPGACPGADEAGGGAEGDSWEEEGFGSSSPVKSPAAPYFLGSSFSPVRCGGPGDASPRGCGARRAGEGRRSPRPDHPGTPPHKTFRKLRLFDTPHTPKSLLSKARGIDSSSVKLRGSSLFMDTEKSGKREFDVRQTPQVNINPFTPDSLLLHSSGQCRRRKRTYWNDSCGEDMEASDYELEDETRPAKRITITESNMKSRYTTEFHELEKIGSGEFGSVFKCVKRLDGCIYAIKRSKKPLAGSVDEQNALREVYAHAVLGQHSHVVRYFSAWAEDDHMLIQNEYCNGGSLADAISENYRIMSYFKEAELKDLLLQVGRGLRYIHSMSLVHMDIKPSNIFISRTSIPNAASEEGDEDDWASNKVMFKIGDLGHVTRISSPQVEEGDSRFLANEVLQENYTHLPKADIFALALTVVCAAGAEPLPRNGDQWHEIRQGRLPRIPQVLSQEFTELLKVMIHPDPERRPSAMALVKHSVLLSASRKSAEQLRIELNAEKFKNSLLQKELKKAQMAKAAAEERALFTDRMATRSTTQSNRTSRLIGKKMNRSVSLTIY
# T1 sequence (Q96SW2 whole entry): as the sequence (Q96SW2 whole entry) above
# T1 sequence (Q16531 whole entry partner): as the sequence (Q16531 whole entry partner) above
# T5 sequence (P48729 whole entry): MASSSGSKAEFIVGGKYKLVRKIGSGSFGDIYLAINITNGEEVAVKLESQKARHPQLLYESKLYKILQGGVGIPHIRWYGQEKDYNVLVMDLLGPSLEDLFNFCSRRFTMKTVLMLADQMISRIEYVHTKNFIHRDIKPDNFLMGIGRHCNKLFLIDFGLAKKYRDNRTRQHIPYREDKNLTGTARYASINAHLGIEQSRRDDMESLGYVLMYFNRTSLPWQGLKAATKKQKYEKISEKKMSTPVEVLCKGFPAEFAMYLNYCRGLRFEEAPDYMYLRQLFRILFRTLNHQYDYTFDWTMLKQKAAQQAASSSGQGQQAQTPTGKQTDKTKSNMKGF
# T5 sequence (Q96SW2 whole entry): as the sequence (Q96SW2 whole entry) above
# T5 sequence (Q16531 whole entry partner): as the sequence (Q16531 whole entry partner) above
# T7 sequence (Q96SW2 whole entry): as the sequence (Q96SW2 whole entry) above
Degradation of substrate protein WEE1 (substrate protein remaining %) (WEE1),Degradation of substrate protein IKZF2 (substrate protein remaining %) (IKZF2),Degradation of substrate protein IKZF3 (substrate protein remaining %) (IKZF3),Degradation of substrate protein CK1α (substrate protein remaining %) (CK1α),Degradation of substrate protein GSPT1 (substrate protein remaining %) (GSPT1),pIC50 [4],SMILES,inhibition at 0.01 µM [1] [%],inhibition at 0.5 µM [1] [%],inhibition at 0.01 µM [2] [%],inhibition at 0.5 µM [2] [%],inhibition at 0.01 µM [3] [%],inhibition at 0.5 µM [3] [%],Degradation of substrate protein IKZF1 (substrate protein remaining %) (IKZF1)
,,,,,,"CN(Cc1ccc2c(c1)C(=O)N(N1CCC(=O)NC1=O)C2)C1CCN(c2ccc(Nc3ncc(C(F)(F)F)c(NCc4nccnc4N(C)S(C)(=O)=O)n3)cc2)CC1 [GT-08136, N-(3-(((2-((4-(4-(((2-(2,4-dioxotetrahydropyrimidin-1(2H)-yl)-3-oxoisoindolin-5-yl)methyl)(methyl)amino)piperidin-1-yl)phenyl)amino)-5-(trifluoromethyl)pyrimidin-4-yl)amino)methyl)pyrazin-2-yl)-N-methylmethanesulfonamide]",-5 to 0,80 to 100,20 to 30,50 to 60,,,
,,,,,,"CNC(=O)c1ccc(Nc2ncc(C(F)(F)F)c(NCc3nccnc3N(C)S(C)(=O)=O)n2)cc1 [Defactinib, reference compound]",5 to 10,60 to 70,30 to 40,30 to 40,5 to 10,5 to 10,
,,,,,,"CN(c1nccnc1CNc1nc(Nc2ccc(N3CCC(N4CCN(CC5CCN(c6cccc7c6C(=O)N(N6CCC(=O)NC6=O)C7=O)CC5)CC4)CC3)cc2)ncc1C(F)(F)F)S(C)(=O)=O [GT-08245, N-(3-(((2-((4-(4-(4-((1-(2-(2,4-dioxotetrahydropyrimidin-1(2H)-yl)-1,3-dioxoisoindolin-4-yl)piperidin-4-yl)methyl)piperazin-1-yl)piperidin-1-yl)phenyl)amino)-5-(trifluoromethyl)pyrimidin-4-yl)amino)methyl)pyrazin-2-yl)-N-methylmethanesulfonamide]",20 to 30,80 to 100,30 to 40,80 to 100,5 to 10,80 to 100,
,,,,,,"CN(c1cccc(CNc2nc(Nc3ccc(N4CCC(N5CCN(CC6CCN(c7cccc8c7C(=O)N(N7CCC(=O)NC7=O)C8=O)CC6)CC5)CC4)cc3)ncc2C(F)(F)F)c1)S(C)(=O)=O [GT-08248, N-(3-(((2-((4-(4-(4-((1-(2-(2,4-dioxotetrahydropyrimidin-1(2H)-yl)-1,3-dioxoisoindolin-4-yl)piperidin-4-yl)methyl)piperazin-1-yl)piperidin-1-yl)phenyl)amino)-5-(trifluoromethyl)pyrimidin-4-yl)amino)methyl)phenyl)-N-methylmethanesulfonamide]",20 to 30,80 to 100,20 to 30,70 to 80,30 to 40,60 to 80,
,,,,,,"CNC(=O)c1ccccc1Nc1cc(Nc2ccc(N3CCOCC3)cc2OC)ncc1C(F)(F)F [PND-1186, reference compound]",5 to 10,60 to 70,30 to 40,40 to 50,5 to 10,20 to 30,
A (0%≤substrate protein remaining %≤80%),A (0%≤substrate protein remaining %≤80%),A (0%≤substrate protein remaining %≤80%),A (0%≤substrate protein remaining %≤80%),A (0%≤substrate protein remaining %≤80%),,"O=C1CCN(N2C(=O)c3ccc(F)cc3C2=O)C(=O)N1 [GT-05575, 2-(2,4-dioxotetrahydropyrimidin-1(2H)-yl)-5-fluoroisoindoline-1,3-dione]",,,,,,,B (80%<substrate protein remaining %≤100%)
A (0%≤substrate protein remaining %≤80%),A (0%≤substrate protein remaining %≤80%),A (0%≤substrate protein remaining %≤80%),A (0%≤substrate protein remaining %≤80%),A (0%≤substrate protein remaining %≤80%),,"O=C1CCN(N2C(=O)c3ccc(N4C[C@@H]5C[C@H]4CN5)cc3C2=O)C(=O)N1 [GT-05582, 5-((1S, 4S)-2,5-diazabicyclo[2.2.1]heptan-2-yl)-2-(2,4-dioxotetrahydropyrimidin-1(2H)-yl)isoindoline-1,3-dione]",,,,,,,B (80%<substrate protein remaining %≤100%)

SMILES,Degradation of substrate protein WEE1 (substrate protein remaining %) (WEE1),Degradation of substrate protein IKZF2 (substrate protein remaining %) (IKZF2),Degradation of substrate protein IKZF3 (substrate protein remaining %) (IKZF3),Degradation of substrate protein CK1α (substrate protein remaining %) (CK1α),Degradation of substrate protein GSPT1 (substrate protein remaining %) (GSPT1),pIC50 [4],inhibition at 0.01 µM [1] [%],inhibition at 0.5 µM [1] [%],inhibition at 0.01 µM [2] [%],inhibition at 0.5 µM [2] [%],inhibition at 0.01 µM [3] [%],inhibition at 0.5 µM [3] [%],Degradation of substrate protein IKZF1 (substrate protein remaining %) (IKZF1)
"O=C1CCN(N2Cc3cc(CBr)ccc3C2=O)C(=O)N1 [GT-05568, 1-(5-(bromomethyl)-1-oxoisoindolin-2-yl)dihydropyrimidine-2,4(1H, 3H)-dione]",A (0%≤substrate protein remaining %≤80%),B (80%<substrate protein remaining %≤100%),A (0%≤substrate protein remaining %≤80%),A (0%≤substrate protein remaining %≤80%),A (0%≤substrate protein remaining %≤80%),5.82 to 6.00,,,,,,,A (0%≤substrate protein remaining %≤80%)
